This note sets out measurements from patent US5317024A, “Ether derivatives of alkyl piperidines and pyrrolidines as antipsychotic agents” (DuPont Merck Pharmaceutical Co., priority 1993, dated 1994).

In one experiment the target is sigma receptor (Cavia porcellus, UniProt Q60492). As to the kind of experiment: biochemical. The conditions noted are these: 1 nM (+)-[3H]SKF 10,047, guinea pig brain membranes, pH 7.4, 45 min, room temperature; read-out: SIGMA receptor binding Ki. The protocol:
(§1) Male Hartley guinea pigs (250-300 g, Charles River) were sacrificed by decapitation. […] Whole brains were homogenized (20 seconds) in 10 vol (wt/vol) of ice-cold 0.34 M sucrose with a Brinkmann Polytron (setting 8). The homogenate was centrifuged at 920 × g for 10 minutes. The supernatant was centrifuged at 47,000 × g for 20 minutes. The resulting membrane pellet was resuspended in 10 vol (original wt/vol) of 50 mM Tris HCl (pH 7.4) and incubated at 37° C. for 45 minutes to degrade and dissociate bound endogenous ligands. The membranes were then centrifuged at 47,000 × g for 20 minutes and resuspended in 50 mM Tris HCl (50 mL per brain).
After 45 minutes of incubation at room temperature, samples were filtered rapidly through Whatman GF/C. glass filters under negative pressure, and washed 3 times with ice-cold Tris buffer (5 mL).
IC50 s were calculated from log-logit plots. Apparent Ki s were calculated from the equation, Ki = IC50 /[1+(L/Kd)] (4), where L is the concentration of radio ligand and Kd is its dissociation constant.

For a further experiment, the target named is T1, dopamine D-2 receptor (Cavia porcellus, UniProt H0VE83).
T1 construct: Membranes were prepared from guinea pig striatum; from tissue; host or cells: guinea pig striatum membranes
T1 sequence (H0VE83 1-446): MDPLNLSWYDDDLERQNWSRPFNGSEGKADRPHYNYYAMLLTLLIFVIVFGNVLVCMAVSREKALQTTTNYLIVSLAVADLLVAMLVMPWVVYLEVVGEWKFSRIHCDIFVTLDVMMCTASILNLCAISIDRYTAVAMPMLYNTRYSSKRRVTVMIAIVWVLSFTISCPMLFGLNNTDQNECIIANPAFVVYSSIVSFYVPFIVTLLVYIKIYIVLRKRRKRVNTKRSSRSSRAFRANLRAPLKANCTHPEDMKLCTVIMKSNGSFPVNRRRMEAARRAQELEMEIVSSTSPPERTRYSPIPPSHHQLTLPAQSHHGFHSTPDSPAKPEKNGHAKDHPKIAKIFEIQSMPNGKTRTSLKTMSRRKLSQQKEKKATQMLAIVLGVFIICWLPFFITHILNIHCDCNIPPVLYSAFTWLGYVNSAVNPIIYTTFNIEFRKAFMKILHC
As to the kind of experiment: Dopamine Receptor Binding ([3H]spiperone, striatum membranes). On the set-up: species or system guinea pig. As to the method: as §1
Membranes were prepared from guinea pig striatum by the method described for sigma receptor binding. The membranes were then resuspended in 50 mM Tris HCl (9 mL per brain).
Nonspecific binding was measured in the presence of 100 nM (+)-butaclamol.After 15 minutes of incubation at 37° C., samples were filtered rapidly through Whatman GF/C glass filters under negative pressure, and washed three times with ice-cold binding buffer (5 mL).
IC50 s were calculated from log-logit plots.

The nature of experiment [1]: Isolation-Induced Aggression in Mice. Conditions: oral; for ED50: Mus musculus, 0.25 h, 15 min after dosing, isolated male Balb/c mice, read-out: Inhibition of Isolation-induced Aggression ED50; for inhibiting isolation-induced aggressive behavior (in words): mice, summary of Table 5. In kind it is in vivo, Male Balb/c mice. The protocol: Male Balb/c mice (Charles River) were used. […] Isolated mice failing to consistently attack an intruder were eliminated from the colony. Drug testing was carried out by treating the isolated mice with test drugs or standards. Fifteen minutes after dosing with test drugs by the oral route, one isolated mouse was removed from its home cage and placed in the home cage of another isolate. Scoring was a yes or no response for each pair. A maximum of 3 minutes was allowed for an attack and the pair was separated immediately upon an attack. Selection of home cage and intruder mice was randomized for each test. Mice were treated and tested twice a week with at least a 2 day washout period between treatments.

Setting [2] is: 0.15 nM [3H]spiperone, guinea pig striatum membranes, pH 7.7, 15 min, 37° C., read-out: DOPAMINE D-2 receptor binding Ki.

Counter-ions that a name gives are not always drawn. Like-named read-outs stand apart in the source and are kept apart here. Where only a bound is given, the exact number is not on record here.

Chain of sigma receptor (Q60492 whole entry): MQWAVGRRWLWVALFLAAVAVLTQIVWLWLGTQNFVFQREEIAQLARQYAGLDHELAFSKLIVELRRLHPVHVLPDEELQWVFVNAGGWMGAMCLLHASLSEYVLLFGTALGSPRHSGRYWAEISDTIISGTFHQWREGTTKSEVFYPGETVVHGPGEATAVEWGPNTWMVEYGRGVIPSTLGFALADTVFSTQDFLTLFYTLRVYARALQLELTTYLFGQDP

For the compound `C(=C\c1ccccc1)/COCC1CCN(Cc2ccccc2)CC1.Cl` [Example 21, (E)-1-Benzyl-4-[(3-phenyl-2-propenyloxy)methyl]piperidine hydrochloride], the Ki (usually a dissociation constant, usually derived from enzyme kinetics or from competition with a known ligand) is 0.001 to 0.03 µM at sigma receptor and > 0.5 µM at dopamine D-2 receptor (setting [2]). Further, in experiment [1], the ED50 (in general, the dose at which the effect has come halfway, by size or by number of responders) is 21 to 70 mg/kg. In experiment [1], the “inhibiting isolation-induced aggressive behavior (in words)” value is “effective”.

For `Fc1ccc(/C=C/COCC2CCN(Cc3ccccc3)CC2)cc1` [Example 22, (E)-1-benzyl-4-{[3-(4-fluoro)phenyl-2-propenyloxy]methyl} piperidine, hydrochloride salt], the values for the Ki on sigma receptor and on dopamine D-2 receptor (setting [2]) were 0.001 to 0.03 µM and > 0.5 µM, respectively.

For the compound `C(=C\c1ccccc1)/COCC1CCN(CC2CC2)CC1` [Example 23], the Ki was 0.001 to 0.03 µM on sigma receptor and > 0.5 µM on dopamine D-2 receptor (setting [2]).

In the case of `C(=C\c1ccccc1)/COCCC1CCCCN1Cc1ccccc1` (centres unmarked) [Example 24], the Ki was 0.001 to 0.03 µM at sigma receptor and > 0.5 µM on dopamine D-2 receptor (setting [2]).

Turning to `C(=C\c1ccccc1)/COCC1CCN(CCc2ccccc2)CC1` [Example 25, (E)-1-phenethyl-4-[(3-phenyl-2-propenyloxy)methyl] piperidine, hydrochloride salt], the results for the Ki at sigma receptor and on dopamine D-2 receptor (setting [2]) were 0.001 to 0.03 µM and 0.101 to 0.5 µM, respectively. In experiment [1], the ED50 fell in the range of 21 to 70 mg/kg. For the same compound, in experiment [1], the “inhibiting isolation-induced aggressive behavior (in words)” value is reported as “effective”.

`C(=C\c1ccccc1)/COCC1CCN(Cc2ccc3ccccc3c2)CC1` [Example 26]: the Ki at sigma receptor was 0.001 to 0.03 µM; at dopamine D-2 receptor (setting [2]) it was > 0.5 µM.

In the case of `C(=C\c1ccccc1)/COCC1CCCN(Cc2ccccc2)C1` (centres unmarked) [Example 27], the Ki at sigma receptor was 0.001 to 0.03 µM; on dopamine D-2 receptor (setting [2]), > 0.5 µM.

For `C(=C\c1ccccc1)/COCC1CCCCN1Cc1ccccc1` (centres unmarked) [Example 28], the Ki is 0.001 to 0.03 µM on sigma receptor and > 0.5 µM on dopamine D-2 receptor (setting [2]).

For the compound `CC(C)=CCN1CCC(COC/C=C/c2ccccc2)CC1` [Example 29], the Ki is 0.001 to 0.03 µM on sigma receptor and > 0.5 µM at dopamine D-2 receptor (setting [2]).

On to `C(=C\c1ccccc1)/COCC1CCN(CCCc2ccccc2)CC1` [Example 30, (E)-1-(3-phenyl)propyl-4-[(3-phenyl-2-propenyloxy)methyl]piperidine, hydrochloride salt], for which the Ki at sigma receptor is 0.001 to 0.03 µM; at dopamine D-2 receptor (setting [2]) it was > 0.5 µM.

As to `C(=C\c1ccccc1)/COC1CCN(Cc2ccccc2)CC1` [Example 31], the Ki is 0.001 to 0.03 µM at sigma receptor and > 0.5 µM on dopamine D-2 receptor (setting [2]).

Take `C(=C\c1ccccc1)/COC1CCN(Cc2ccccc2)C1` (centres unmarked) [Example 32]: the Ki on sigma receptor was 0.001 to 0.03 µM; on dopamine D-2 receptor (setting [2]), > 0.5 µM.

For `C(=C\c1ccccc1)/COCC1CCN(Cc2cccc3ccccc23)CC1` [Example 33], the Ki was 0.031 to 0.1 µM at sigma receptor and > 0.5 µM on dopamine D-2 receptor (setting [2]).

In the case of `C(COCC1CCN(Cc2ccccc2)CC1)=C(c1ccccc1)c1ccccc1` [Example 34], the Ki was 0.001 to 0.03 µM on sigma receptor and > 0.5 µM at dopamine D-2 receptor.

Take `FC(F)(F)c1ccc(/C=C/COCC2CCN(Cc3ccccc3)CC2)cc1` [Example 35, (E)-1-benzyl-4-{[3-(4-trifluoromethyl)phenyl-2-propenyloxy]methyl}piperidine, maleic acid salt]: the results for the Ki on sigma receptor and at dopamine D-2 receptor (setting [2]) were 0.001 to 0.03 µM and > 0.5 µM, respectively.

On to `CCCCCCN1CCC(COC/C=C/c2ccccc2)CC1` [Example 36], for which the Ki on sigma receptor is 0.001 to 0.03 µM; on dopamine D-2 receptor (setting [2]), > 0.5 µM.

As to `C(=C\c1ccccc1)/COC[C@H]1CCCN1Cc1ccccc1` [Example 37], the values for the Ki on sigma receptor and at dopamine D-2 receptor (setting [2]) were 0.001 to 0.03 µM and > 0.5 µM, respectively.

As to `C(=C\c1ccccc1)/COC[C@@H]1CCCN1Cc1ccccc1` [Example 38], the Ki at sigma receptor is 0.001 to 0.03 µM; on dopamine D-2 receptor (setting [2]), > 0.5 µM.

`C(#Cc1ccccc1)COCCC1CCN(CCc2ccccc2)CC1` [Example 39, 1-Phenethyl-4-(3-phenyl-2-propynyloxy)ethyl] piperidine, hydrochloride salt]: the inhibitory constant (Ki) at sigma receptor was 0.001 to 0.03 µM; at dopamine D-2 receptor (setting [2]) it was 0.101 to 0.5 µM.

As for `C(#Cc1ccccc1)COCCC1CCN(Cc2ccccc2)CC1` [Example 40], the Ki on sigma receptor was 0.001 to 0.03 µM; at dopamine D-2 receptor (setting [2]), > 0.5 µM.

With `C(=C\c1ccccc1)/COCCC1CCN(Cc2ccccc2)CC1` [Example 41, (E)-1Benzyl-4-[(3-phenyl-2-propenyloxy)lethyl]piperidine, maleic acid salt], the Ki at sigma receptor was 0.001 to 0.03 µM; at dopamine D-2 receptor (setting [2]), > 0.5 µM.

Consider `C(=C/c1ccccc1)/COCCC1CCN(Cc2ccccc2)CC1` [Example 42, (Z)-1-Benzyl-4[(3-phenyl-2-propenyloxy)ethyl]piperidine], for which the Ki on sigma receptor is 0.031 to 0.1 µM; on dopamine D-2 receptor (setting [2]) it was > 0.5 µM.

In the case of `O=C(CCCN1CCC(O)(c2ccc(Cl)cc2)CC1)c1ccc(F)cc1` [Haloperidol, reference compound], in experiment [1], the ED50 was < 10 mg/kg and the “inhibiting isolation-induced aggressive behavior (in words)” value is “effective”.
